In patent US20230057568A1, “COMPOUNDS FOR TREATING FAMILIAL DYSAUTONOMIA” (PTC THERAPEUTICS, INC., priority 2019, published 2023):

System: Elongator complex protein 1 (ELP1, also referred to as IKBKAP)
Experiment: IKBKAP-HTRF Assay
Type: cell-based, human
Conditions: FD patient-derived fibroblasts GM04589, 48 hours incubation; for EC2x for IKBKAP protein expression (concentration producing two times the amount of IKBKAP protein vs DMSO vehicle control): 7-point concentration curve; for MFI (maximum fold increase in IKBKAP protein abundance relative to the vehicle control): HTRF
In short: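 Sandwich HTRF (anti-IKAP d2 and K(9+8)) on cell lysates measured IKBKAP protein after overnight 4 °C incubation, read at 665 and 620 nm. Lysates came from FD patient cells exposed 48 hours to 7-point compound dilutions, in triplicate. Outputs: maximum fold increase over vehicle, and EC2× (the concentration giving twice the DMSO-control protein level).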

Clc1nc(NCc2ccncc2)c2scc(Br)c2n1 [Cpd 43, 7-bromo-2-chloro-N-[(pyridin-4-yl)methyl]thieno[3,2-d]pyrimidin-4-amine]
EC2x for IKBKAP protein expression (concentration producing two times the amount of IKBKAP protein vs DMSO vehicle control): *** (between >0.02 μM and ≤0.5 μM) | MFI (maximum fold increase in IKBKAP protein abundance relative to the vehicle control): **** (between >3.9 and <4.9)

Cc1c(C[C@H](C)N)sc2c(NCc3ccco3)nc(C(F)(F)F)nc12 [Cpd 26, 6-[(2S)-2-aminopropyl]-N-[(furan-2-yl)methyl]-7-methyl-2-(trifluoromethyl)thieno[3,2-d]pyrimidin-4-amine]
EC2x for IKBKAP protein expression (concentration producing two times the amount of IKBKAP protein vs DMSO vehicle control): *** (between >0.02 μM and ≤0.5 μM) | MFI (maximum fold increase in IKBKAP protein abundance relative to the vehicle control): **** (between >3.9 and <4.9)

C[C@H](N)c1sc2c(NCc3ccco3)nc(Cl)nc2c1-c1ccccc1 [Cpd 58, 6-[(1S)-1-aminoethyl]-2-chloro-N-[(furan-2-yl)methyl]-7-phenylthieno[3,2-d]pyrimidin-4-amine]
EC2x for IKBKAP protein expression (concentration producing two times the amount of IKBKAP protein vs DMSO vehicle control): * (EC2×>1 μM) | MFI (maximum fold increase in IKBKAP protein abundance relative to the vehicle control): * (MFI<1.9)

Cc1c(CCCN)sc2c(NCc3ccco3)nc(Cl)nc12 [Cpd 67, 6-(3-aminopropyl)-2-chloro-N-[(furan-2-yl)methyl]-7-methylthieno[3,2-d]pyrimidin-4-amine]
EC2x for IKBKAP protein expression (concentration producing two times the amount of IKBKAP protein vs DMSO vehicle control): * (EC2×>1 μM) | MFI (maximum fold increase in IKBKAP protein abundance relative to the vehicle control): * (MFI<1.9)

Cc1c(C[C@H](C)N)sc2c(NCc3ccco3)nc(C#N)nc12 [Cpd 21, 6-[(2S)-2-aminopropyl]-4-{[(furan-2-yl)methyl]amino}-7-methylthieno[3,2-d]pyrimidine-2-carbonitrile]
EC2x for IKBKAP protein expression (concentration producing two times the amount of IKBKAP protein vs DMSO vehicle control): **** (between >0.005 μM and ≤0.02 μM) | MFI (maximum fold increase in IKBKAP protein abundance relative to the vehicle control): ***** (>4.9)

Cc1c(C2CCNC2)sc2c(NCc3ccco3)nc(Cl)nc12 (stereo not drawn) [Cpd 57, 2-chloro-N-[(furan-2-yl)methyl]-7-methyl-6-(pyrrolidin-3-yl)thieno[3,2-d]pyrimidin-4-amine]
EC2x for IKBKAP protein expression (concentration producing two times the amount of IKBKAP protein vs DMSO vehicle control): *** (between >0.02 μM and ≤0.5 μM) | MFI (maximum fold increase in IKBKAP protein abundance relative to the vehicle control): *** (between >2.9 and <3.9)

Cc1c(C[C@H](C)N)sc2c(NCc3ccno3)nc(Cl)nc12 [Cpd 39, 6-[(2S)-2-aminopropyl]-2-chloro-7-methyl-N-[(1,2-oxazol-5-yl)methyl]thieno[3,2-d]pyrimidin-4-amine]
EC2x for IKBKAP protein expression (concentration producing two times the amount of IKBKAP protein vs DMSO vehicle control): *** (between >0.02 μM and ≤0.5 μM) | MFI (maximum fold increase in IKBKAP protein abundance relative to the vehicle control): ***** (>4.9)

Cc1c(C[C@H](C)N)sc2c(NCc3sccc3F)nc(Cl)nc12 [Cpd 90, 6-[(2S)-2-aminopropyl]-2-chloro-N-[(3-fluorothiophen-2-yl)methyl]-7-methylthieno[3,2-d]pyrimidin-4-amine]
EC2x for IKBKAP protein expression (concentration producing two times the amount of IKBKAP protein vs DMSO vehicle control): ***** (<0.005 μM) | MFI (maximum fold increase in IKBKAP protein abundance relative to the vehicle control): ***** (>4.9)

Cc1c([C@@H](C)N)sc2c(NCc3ccco3)nc(Cl)nc12 [Cpd 94, 6-[(1R)-1-aminoethyl]-2-chloro-N-[(furan-2-yl)methyl]-7-methylthieno[3,2-d]pyrimidin-4-amine]
EC2x for IKBKAP protein expression (concentration producing two times the amount of IKBKAP protein vs DMSO vehicle control): * (EC2×>1 μM) | MFI (maximum fold increase in IKBKAP protein abundance relative to the vehicle control): * (MFI<1.9)

CC[C@@H](N)c1sc2c(NCc3ccco3)nc(Cl)nc2c1C [Cpd 49, 6-[(1R)-1-aminopropyl]-2-chloro-N-[(furan-2-yl)methyl]-7-methylthieno[3,2-d]pyrimidin-4-amine]
EC2x for IKBKAP protein expression (concentration producing two times the amount of IKBKAP protein vs DMSO vehicle control): * (EC2×>1 μM) | MFI (maximum fold increase in IKBKAP protein abundance relative to the vehicle control): * (MFI<1.9)

Cc1c(C[C@H](C)N)sc2c(NCc3cccnc3F)nc(Cl)nc12 [Cpd 60, 6-[(2S)-2-aminopropyl]-2-chloro-N-[(2-fluoropyridin-3-yl)methyl]-7-methylthieno[3,2-d]pyrimidin-4-amine]
EC2x for IKBKAP protein expression (concentration producing two times the amount of IKBKAP protein vs DMSO vehicle control): *** (between >0.02 μM and ≤0.5 μM) | MFI (maximum fold increase in IKBKAP protein abundance relative to the vehicle control): *** (between >2.9 and <3.9)

Cc1c(C[C@H](C)N)sc2c(NCc3ccccc3)nc(Cl)nc12 [Cpd 34, 6-[(2S)-2-aminopropyl]-N-benzyl-2-chloro-7-methylthieno[3,2-d]pyrimidin-4-amine]
EC2x for IKBKAP protein expression (concentration producing two times the amount of IKBKAP protein vs DMSO vehicle control): ***** (<0.005 μM) | MFI (maximum fold increase in IKBKAP protein abundance relative to the vehicle control): ***** (>4.9)

CCc1nc(NCc2ccco2)c2sc(C[C@H](C)N)c(C)c2n1 [Cpd 16, 6-[(2S)-2-aminopropyl]-2-ethyl-N-[(furan-2-yl)methyl]-7-methylthieno[3,2-d]pyrimidin-4-amine]
EC2x for IKBKAP protein expression (concentration producing two times the amount of IKBKAP protein vs DMSO vehicle control): *** (between >0.02 μM and ≤0.5 μM) | MFI (maximum fold increase in IKBKAP protein abundance relative to the vehicle control): *** (between >2.9 and <3.9)

C[C@H](N)c1sc2c(NCc3ccco3)nc(Cl)nc2c1Br [Cpd 46, 6-[(1S)-1-aminoethyl]-7-bromo-2-chloro-N-[(furan-2-yl)methyl]thieno[3,2-d]pyrimidin-4-amine]
EC2x for IKBKAP protein expression (concentration producing two times the amount of IKBKAP protein vs DMSO vehicle control): * (EC2×>1 μM) | MFI (maximum fold increase in IKBKAP protein abundance relative to the vehicle control): * (MFI<1.9)

Cc1c(C[C@H](C)N)sc2c(NCc3ccco3)nc(C3CC3)nc12 [Cpd 17, 6-[(2S)-2-aminopropyl]-2-cyclopropyl-N-[(furan-2-yl)methyl]-7-methylthieno[3,2-d]pyrimidin-4-amine]
EC2x for IKBKAP protein expression (concentration producing two times the amount of IKBKAP protein vs DMSO vehicle control): * (EC2×>1 μM) | MFI (maximum fold increase in IKBKAP protein abundance relative to the vehicle control): * (MFI<1.9)

Cc1c(C[C@@H](N)CO)sc2c(NCc3cccs3)nc(Cl)nc12 [Cpd 56, (2R)-2-amino-3-(2-chloro-7-methyl-4-{[(thiophen-2-yl)methyl]amino}thieno[3,2-d]pyrimidin-6-yl)propan-l-ol]
EC2x for IKBKAP protein expression (concentration producing two times the amount of IKBKAP protein vs DMSO vehicle control): ***** (<0.005 μM) | MFI (maximum fold increase in IKBKAP protein abundance relative to the vehicle control): ***** (>4.9)

CC[C@H](C)[C@H](N)Cc1cc2nc(Cl)nc(NCc3ccco3)c2s1 [Cpd 6, 6-[(2R,3S)-2-amino-3-methylpentyl]-2-chloro-N-[(furan-2-yl)methyl]thieno[3,2-d]pyrimidin-4-amine]
EC2x for IKBKAP protein expression (concentration producing two times the amount of IKBKAP protein vs DMSO vehicle control): *** (between >0.02 μM and ≤0.5 μM) | MFI (maximum fold increase in IKBKAP protein abundance relative to the vehicle control): *** (between >2.9 and <3.9)

Cc1c(C[C@H](C)N)sc2c(NCc3ccncc3)nc(Cl)nc12 [Cpd 45, 6-[(2S)-2-aminopropyl]-2-chloro-7-methyl-N-[(pyridin-4-yl)methyl]thieno[3,2-d]pyrimidin-4-amine]
EC2x for IKBKAP protein expression (concentration producing two times the amount of IKBKAP protein vs DMSO vehicle control): ***** (<0.005 μM) | MFI (maximum fold increase in IKBKAP protein abundance relative to the vehicle control): ***** (>4.9)
